Measurements reported in PubChem BioAssay AID328 (DTP/NCI, 2004).
Where “and” joins values, the source holds several entries; their conditions need not be identical. Equal values may be shown once. Toxic doses and inconclusive results are not listed.

Tested on: BDF1 mice, P388 leukemia ip, median survival T/C
Assay: NCI In Vivo Anticancer Drug Screen. Data for tumor model P388 Leukemia (intraperitoneal) in B6D2F1 (BDF1) mice
Conditions: endpoint: median survival time, higher = longer survival
In short: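 Read-out is survival of treated animals expressed relative to the vehicle group, as a T/C ratio.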

O=C(O)CNCc1ccc(F)cc1
T/C (dose: 50.0 mg/kg/injection, schedule: Q04DX003 (ip), vehicle: saline): 111 % of control | T/C (dose: 100.0 mg/kg/injection, schedule: Q04DX003 (ip), vehicle: saline): 120 % of control | T/C (dose: 200.0 mg/kg/injection, schedule: Q04DX003 (ip), vehicle: saline): 115 % of control

CC(=O)N(CCN(Cc1ccc(Oc2ccc([N+](=O)[O-])cc2[N+](=O)[O-])cc1)C(C)=O)CCN(Cc1ccc(Oc2ccc([N+](=O)[O-])cc2[N+](=O)[O-])cc1)C(C)=O
T/C (dose: 25.0 mg/kg/injection, schedule: Q01DX009 (ip), vehicle: other): 94 % of control | T/C (dose: 50.0 mg/kg/injection, schedule: Q01DX009 (ip), vehicle: other): 103 % of control | T/C (dose: 100.0 mg/kg/injection, schedule: Q01DX009 (ip), vehicle: other): 100 % of control | T/C (dose: 200.0 mg/kg/injection, schedule: Q01DX009 (ip), vehicle: other): 94 % of control | T/C (dose: 400.0 mg/kg/injection, schedule: Q01DX009 (ip), vehicle: other): 103 % of control

CN1CCC2=C(C1)C(N1CCCC1)CS(=O)(=O)O2 (stereo not given)
T/C (dose: 12.5 mg/kg/injection, schedule: Q04DX002 (ip), vehicle: saline): 100 % of control | T/C (dose: 25.0 mg/kg/injection, schedule: Q04DX002 (ip), vehicle: saline): 102 % of control | T/C (dose: 50.0 mg/kg/injection, schedule: Q04DX002 (ip), vehicle: saline): 99 % of control

O=c1/c(=C\C=C\c2ccccc2)sc2n1CCN=2
T/C (dose: 50.0 mg/kg/injection, schedule: Q01DX009 (ip), vehicle: saline with Tween-80): 92 % of control | T/C (dose: 100.0 mg/kg/injection, schedule: Q01DX009 (ip), vehicle: saline with Tween-80): 92 % of control | T/C (dose: 200.0 mg/kg/injection, schedule: Q01DX009 (ip), vehicle: saline with Tween-80): 92 % of control

C=CC[N+](CC=C)(CC=C)CCC[N+](CC=C)(CC=C)CC=C
T/C (dose: 25.0 mg/kg/injection, schedule: Q04DX003 (ip), vehicle: water): 107 % of control | T/C (dose: 50.0 mg/kg/injection, schedule: Q04DX003 (ip), vehicle: water): 88 % of control

CNC(=N)c1ccc(NC(=N)c2ccc(NC(=O)Nc3ccc(NC(=O)Nc4ccc(C(=N)Nc5ccc(C(=N)NC)cc5)cc4)cc3)cc2)cc1
T/C (dose: 4.0 mg/kg/injection, schedule: Q04DX003 (ip), vehicle: Klucel (hydroxypropylcellulose) (HPC)): 154 % of control | T/C (dose: 6.0 mg/kg/injection, schedule: Q04DX003 (ip), vehicle: Klucel (hydroxypropylcellulose) (HPC)): 150 % of control and 154 % of control | T/C (dose: 7.0 mg/kg/injection, schedule: Q01DX009 (ip), vehicle: Klucel (hydroxypropylcellulose) (HPC)): 161 % of control | T/C (dose: 9.0 mg/kg/injection, schedule: Q04DX003 (ip), vehicle: Klucel (hydroxypropylcellulose) (HPC)): 159 % of control | T/C (dose: 11.0 mg/kg/injection, schedule: Q01DX009 (ip), vehicle: Klucel (hydroxypropylcellulose) (HPC)): 150 % of control | T/C (dose: 13.0 mg/kg/injection, schedule: Q04DX003 (ip), vehicle: Klucel (hydroxypropylcellulose) (HPC)): 176 % of control and 177 % of control | T/C (dose: 16.5 mg/kg/injection, schedule: Q01DX009 (ip), vehicle: Klucel (hydroxypropylcellulose) (HPC)): 192 % of control | T/C (dose: 20.0 mg/kg/injection, schedule: Q04DX003 (ip), vehicle: Klucel (hydroxypropylcellulose) (HPC)): 153 % of control | T/C (dose: 25.0 mg/kg/injection, schedule: Q01DX009 (ip), vehicle: Klucel (hydroxypropylcellulose) (HPC)): 231 % of control | T/C (dose: 30.0 mg/kg/injection, schedule: Q04DX003 (ip), vehicle: Klucel (hydroxypropylcellulose) (HPC)): 176 % of control | T/C (dose: 44.0 mg/kg/injection, schedule: Q04DX003 (ip), vehicle: Klucel (hydroxypropylcellulose) (HPC)): 160 % of control and 207 % of control | T/C (dose: 67.0 mg/kg/injection, schedule: Q04DX003 (ip), vehicle: Klucel (hydroxypropylcellulose) (HPC)): 173 % of control and 207 % of control | T/C (dose: 100.0 mg/kg/injection, schedule: Q04DX003 (ip), vehicle: Klucel (hydroxypropylcellulose) (HPC)): 230 % of control (2×) and 156 % of control | T/C (dose: 150.0 mg/kg/injection, schedule: Q04DX003 (ip), vehicle: Klucel (hydroxypropylcellulose) (HPC)): 160 % of control and 211 % of control
